Laboratory results: patent US5461059A, “Derivatives of terbutylphenyl-1-amino-4-hydroxybutane their preparation processes and the pharmaceutical compositions containing them” (priority 1990, dated 1995)
pIC50: −log10 of the molar value. Like-named read-outs stand apart in the source and are kept apart here.

Columns and labels:
Adenosine A2 = target: T1, Adenosine A2 (Rattus norvegicus, UniProt P30543); assay: Affinity for adenosine A2 ([3H]NECA); assay type: binding
T1 construct: membranar receptors of various rats organs; from tissue; host or cells: rat striatum
Method: (§1) A broad range of membranar receptors of various rats organs has been tested according to the same principle than the H1 receptor under the following conditions which are summarized:
Adenosine A2: striatum 60 mn at 25° in 50 mM TRIS-ClH buffer (pH 7.7) added with 50 nM cyclopentyladenosine, 10 mM Cl2 Mg and 0.1 Unit/ml […] against 4 nM of [^3 H] NECA (5'-N-ethylcarboxamido adenosine).
(§2) The more weak is the CI50, the more high is the affinity.

[1] = system: Central sites to benzodiazepines; assay: Affinity for central sites to benzodiazepines ([3H]-Flunitrazepam); assay type: binding; settings: rat whole brain; 0.3 nM [3H]-Flunitrazepam, pH 7.1; read-out: CI50 (the source's name)
Method: Central sites to benzodiazepines: whole brain, 90 mn at 0° C. in 50 mM TRIS-ClH buffer (pH 7.1) against 0.3 nM [^3 H]-Flunitrazepam.

[2] = Irwin's test (modified, Morpurgo), behaviour in mice; assay type: in vivo; settings: oral
Method: The Irwin's test, modified according to Morpurgo's Technique (1971) has been carried out to search optional alterations of the spontaneous behaviour under the action of the compound of example III or of a H1-antihistaminic of the first generation Dexchloropheniramine, known to induce some effects of drowsiness in the person. After administration by oral way, the mice have been kept under observation for 30 mn then have submitted to a seri. of simple test of behavioural screening after 30 mn, 3 hours and 24 hours.

[3] = target: T2, H1 receptors of rat cortexes (Rattus norvegicus, UniProt P31390); assay: Affinity for H1 receptors, rat cortex membranes ([3H]Mepyramine); assay type: binding; settings: read-out: CI50 (50% inhibitory concentration) on H1 receptors, 2 nM tritiated Mepyramine, 30 mn, 25° C., pH 7.4
T2 construct: membranar preparations of homogenates of rat cortexes or guinea pig lungs; from tissue; host or cells: rat cortex membranes
Method: (§3) After 30 mn at 25° C. and at pH 7.4, in a 50 mM TRIS-ClH buffer for the membrans of the cortex or a 0.5 M PO4 HNa2 /PO4 H2 K buffer for the lungs membrans, the residual bound fraction of tritiated ligand is counted by scintillation in a liquid medium after filtration on an apparatur of the Brandel's type and several washings.

Muscarinic M1 = target: T3, Muscarinic M1 (Rattus norvegicus, UniProt P08482); assay: Affinity for muscarinic M1 ([3H]-pirenzepine); assay type: binding; settings: rat cortex, striatum and hypocampus; 2 nM [3H]-pirenzepine, pH 7.4; read-out: CI50 (the source's name)
T3 construct: membranar receptors of various rats organs; from tissue; host or cells: rat cortex, striatum and hippocampus (pool)
T3 sequence (P08482 1-460): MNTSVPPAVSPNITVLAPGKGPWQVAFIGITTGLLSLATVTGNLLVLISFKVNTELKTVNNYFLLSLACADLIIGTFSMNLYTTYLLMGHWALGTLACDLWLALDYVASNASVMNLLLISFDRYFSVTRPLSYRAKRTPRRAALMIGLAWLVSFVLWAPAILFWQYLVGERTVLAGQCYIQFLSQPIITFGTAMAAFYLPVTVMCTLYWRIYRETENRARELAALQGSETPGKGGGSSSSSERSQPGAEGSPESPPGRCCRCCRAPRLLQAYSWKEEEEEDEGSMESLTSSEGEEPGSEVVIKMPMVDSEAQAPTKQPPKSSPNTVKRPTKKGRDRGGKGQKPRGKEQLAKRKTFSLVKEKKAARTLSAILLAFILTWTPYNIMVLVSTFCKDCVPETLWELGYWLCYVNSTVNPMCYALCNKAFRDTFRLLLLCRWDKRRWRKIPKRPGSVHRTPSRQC
Method: Muscarinic M1: pool of cortex, striatum and hypocampus, 60 mn at 25° C. in 10 mM PO4 HNa2 /PO4 H2 K buffer (pH 7.4) against 2 nM [^3 H]-pirenzepinc.

Sigma receptor = target: T4, Sigma receptor (Rattus norvegicus, UniProt Q9R0C9); assay: Affinity for Sigma receptors ([3H](+)3-PPP); assay type: binding
T4 construct: membranar receptors of various rats organs; from tissue; host or cells: rat whole brain
Method: as §1
Sigma receptors: whole brain, 2 hours at 22° C. in 50 mM TRIS-ClH buffer (pH 8) against 2 nM of [^3 H] (+)3-PPP (3-(3-hydroxyphenyl)N-(1-propyl) piperidine).
as §2

GABAB = target: T5, GABAB (Rattus norvegicus, UniProt Q9Z0U4); assay: Affinity for GABAB ([3H]Baclofen); assay type: binding
T5 construct: membranar receptors of various rats organs; from tissue; host or cells: rat cerebellum
Method: as §1
GABAB : Cerebellum, 10 mn at 22° C. in 50 mM TRIS-ClH buffer (pH 7.4) added to 1.2 mM SO^4 Mg and 2.5 mM Cl2 Ca, against 20 nM of [^3 H] Baclofen.
as §2

[4] = assay type: in vivo, mice
From the text: The principle of this test consists in chronometering the duration for which mice maintain itself on a rod rotating at a constant speed. Compounds which are endowed with sedative or myorelaxing or inhibitory of the motor coordination, will induce a precocious fall, before 120 seconds which are the maximals period of study. […] This test takes place 30 mn and 60 mn after administration. […] Chlorpromazine, major neuroleptic used as positive standard in the Rota-rod Test, caused the fall before the time granted, of 90% of the mice from the dosage of 4 mg/kg by intraperitoneal way.

GABAA = assay: Affinity for GABAA ([3H]Muscimol); assay type: binding; settings: rat whole brain; 5 nM [3H]Muscimol, pH 7.2; read-out: CI50 (the source's name)
Method: GABAA : whole brain 20 mn at 4° C., in 50 nM TRIS-ClH buffer (pH 7.2) added to 0.5%. TRITON X-100, against 5 nM [^3 H] Muscimol.

[5] = system: bronchospasm due to histamine; assay: Bronchospasm to histamine aerosol in guinea pigs, oral; assay type: in vivo, guinea pig; settings: single dosage 10 mg/kg
Method: By oral way the single dosage of 10 mg/kg has been studied as a function of time.

[6] = Single maximal non-toxic dosage by oral way in mice; assay type: in vivo; settings: single oral dosage until 1000 mg/kg
Method: On the other side a mydriasis has been noticed after 3 hours. […] This is less fine than the Irvin's Test during which the animals are handled and interact with the experimenter.

Muscarinic M2 = target: T6, Muscarinic M2 (Rattus norvegicus, UniProt P10980); assay: biochemical; assay type: binding
T6 sequence (P10980 1-466): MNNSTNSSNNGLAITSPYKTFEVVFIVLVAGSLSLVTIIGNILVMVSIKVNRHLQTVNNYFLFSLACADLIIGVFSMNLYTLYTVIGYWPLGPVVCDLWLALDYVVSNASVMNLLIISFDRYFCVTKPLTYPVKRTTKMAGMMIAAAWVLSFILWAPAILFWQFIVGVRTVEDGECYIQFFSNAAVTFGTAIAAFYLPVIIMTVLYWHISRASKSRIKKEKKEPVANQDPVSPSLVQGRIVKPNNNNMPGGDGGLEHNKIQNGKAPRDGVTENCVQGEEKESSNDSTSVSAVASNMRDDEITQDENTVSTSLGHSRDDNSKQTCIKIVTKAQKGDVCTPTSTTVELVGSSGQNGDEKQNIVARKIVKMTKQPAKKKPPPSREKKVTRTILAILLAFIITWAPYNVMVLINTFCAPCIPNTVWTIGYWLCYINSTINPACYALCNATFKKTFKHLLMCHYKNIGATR

Adenosine A1 = target: T7, Adenosine A1 (Rattus norvegicus, UniProt P25099); assay: Affinity for adenosine A1 ([3H]cyclohexyladenosine); assay type: binding
T7 construct: membranar receptors of various rats organs; from tissue; host or cells: rat cortex
T7 sequence (P25099 1-326): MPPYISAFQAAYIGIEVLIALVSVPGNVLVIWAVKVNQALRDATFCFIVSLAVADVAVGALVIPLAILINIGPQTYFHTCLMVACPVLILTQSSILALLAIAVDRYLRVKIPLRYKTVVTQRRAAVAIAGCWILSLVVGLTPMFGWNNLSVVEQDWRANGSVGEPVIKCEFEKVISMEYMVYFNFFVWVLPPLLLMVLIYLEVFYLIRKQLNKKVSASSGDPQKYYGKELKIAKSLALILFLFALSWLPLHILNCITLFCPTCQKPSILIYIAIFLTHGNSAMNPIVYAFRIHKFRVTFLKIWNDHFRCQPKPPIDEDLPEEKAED
Method: as §1
Adenosine A1: cortex, 90 mn at 25° C. in 50 mM TRIS-ClH buffer (pH 7.7) against 1 nMol of [^3 H] cyclohexyladenosine
as §2

[7] = target: T8, H1-receptors of guinea pigs lungs (Cavia porcellus, UniProt P31389); assay: Affinity for H1 receptors, guinea pig lung membranes ([3H]Mepyramine); assay type: binding; settings: read-out: CI50 (50% inhibitory concentration) on H1 receptors, 2 nM tritiated Mepyramine, 30 mn, 25° C., pH 7.4
T8 construct: membranar preparations of homogenates of rat cortexes or guinea pig lungs; from tissue; host or cells: guinea pig lung membranes
Method: as §3

receptors of H1-type = receptors of H1-type (Cavia porcellus, UniProt P31389); assay: Histamine contraction of isolated ileon of guinea pig; settings: for activity compared with Terfenadine on isolated ileon: difference not significant
From the text: The shift of the relationship between contracturing effect and concentration of histamine by the compound to be studied, stamps an anti-H1 activity.

[8] = system: bronchospasm due to histamine; assay: Bronchospasm to histamine aerosol in guinea pigs, intraperitoneal; assay type: in vivo, guinea pig; settings: for ED50: Cavia porcellus, ip, 0.5 h, read-out: ED50 (efficient dosage at 50%) against histamine bronchospasm
Method: Inhalating an aerosol at 1%, of histamine (aqeuous solution in distilled water, nebulization with a apparatus HOSPITAK) causes in the guinea pigs, a bronchospasm which leads with immobilization of the animals on their own side. The time needed for the animals to lie down is measured for 5 minutes maximum.

[9] = target: T9, Peripheral sites to the benzodiazepines (Rattus norvegicus, UniProt P16257); assay: Affinity for peripheral sites to benzodiazepines ([3H]PK 11195); assay type: binding
T9 construct: membranar receptors of various rats organs; from tissue; host or cells: rat cortex
Method: as §1
Peripheral sites to the benzodiazepines: Cortex 90 mn at 25° C. in 90 mM PO4 HNa2 /PO4 H2 K buffer, 81 mM ClNa and […] (pH 7.4) against 1 nM [^3 H]PK 11195.
as §2

[10] = rat striatum, 4 nM [3H]NECA, pH 7.7, read-out: CI50 (the source's name)
[11] = rat cerebellum, 20 nM [3H]Baclofen, pH 7.4, read-out: CI50 (the source's name)
[12] = rat cortex, 1 nMol [3H]cyclohexyladenosine, pH 7.7, read-out: CI50 (the source's name)
[13] = intraperitoneal, 10 mg/kg, 30 minutes after administration
[14] = rat cortex, 1 nM [3H]PK 11195, pH 7.4, read-out: CI50 (the source's name)

T4 sequence (Q9R0C9 whole entry): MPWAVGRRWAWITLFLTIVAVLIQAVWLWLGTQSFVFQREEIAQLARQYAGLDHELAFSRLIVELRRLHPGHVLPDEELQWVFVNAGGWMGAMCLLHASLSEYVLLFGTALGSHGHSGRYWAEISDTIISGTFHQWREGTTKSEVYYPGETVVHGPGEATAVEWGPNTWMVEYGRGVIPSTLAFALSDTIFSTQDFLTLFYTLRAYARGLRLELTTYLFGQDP
T1 sequence (P30543 whole entry): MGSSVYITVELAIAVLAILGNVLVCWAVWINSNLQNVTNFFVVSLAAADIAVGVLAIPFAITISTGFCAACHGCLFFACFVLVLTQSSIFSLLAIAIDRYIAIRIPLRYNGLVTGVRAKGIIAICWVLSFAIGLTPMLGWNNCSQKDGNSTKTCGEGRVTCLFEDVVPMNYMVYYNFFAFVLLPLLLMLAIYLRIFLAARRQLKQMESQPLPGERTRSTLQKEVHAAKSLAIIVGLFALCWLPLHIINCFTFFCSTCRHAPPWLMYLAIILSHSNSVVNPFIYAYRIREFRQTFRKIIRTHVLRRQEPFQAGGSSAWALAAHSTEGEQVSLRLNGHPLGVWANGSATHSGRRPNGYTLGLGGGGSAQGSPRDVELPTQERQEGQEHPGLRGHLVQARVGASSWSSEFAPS
receptors of H1-type, sequence (P31389 whole entry): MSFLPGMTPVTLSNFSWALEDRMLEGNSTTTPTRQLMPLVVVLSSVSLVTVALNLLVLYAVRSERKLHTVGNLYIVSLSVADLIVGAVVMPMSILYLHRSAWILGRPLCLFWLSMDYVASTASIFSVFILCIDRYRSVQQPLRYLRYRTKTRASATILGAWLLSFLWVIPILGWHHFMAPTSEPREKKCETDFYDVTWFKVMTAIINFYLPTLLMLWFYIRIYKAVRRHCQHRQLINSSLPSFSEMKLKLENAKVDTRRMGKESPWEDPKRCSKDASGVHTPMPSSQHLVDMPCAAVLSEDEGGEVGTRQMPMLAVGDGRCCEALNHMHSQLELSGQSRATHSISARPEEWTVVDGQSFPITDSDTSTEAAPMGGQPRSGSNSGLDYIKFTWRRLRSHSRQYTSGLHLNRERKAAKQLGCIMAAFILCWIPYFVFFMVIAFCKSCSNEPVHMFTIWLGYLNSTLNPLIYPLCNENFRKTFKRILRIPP
T5 sequence (Q9Z0U4 17-960 limits assumed): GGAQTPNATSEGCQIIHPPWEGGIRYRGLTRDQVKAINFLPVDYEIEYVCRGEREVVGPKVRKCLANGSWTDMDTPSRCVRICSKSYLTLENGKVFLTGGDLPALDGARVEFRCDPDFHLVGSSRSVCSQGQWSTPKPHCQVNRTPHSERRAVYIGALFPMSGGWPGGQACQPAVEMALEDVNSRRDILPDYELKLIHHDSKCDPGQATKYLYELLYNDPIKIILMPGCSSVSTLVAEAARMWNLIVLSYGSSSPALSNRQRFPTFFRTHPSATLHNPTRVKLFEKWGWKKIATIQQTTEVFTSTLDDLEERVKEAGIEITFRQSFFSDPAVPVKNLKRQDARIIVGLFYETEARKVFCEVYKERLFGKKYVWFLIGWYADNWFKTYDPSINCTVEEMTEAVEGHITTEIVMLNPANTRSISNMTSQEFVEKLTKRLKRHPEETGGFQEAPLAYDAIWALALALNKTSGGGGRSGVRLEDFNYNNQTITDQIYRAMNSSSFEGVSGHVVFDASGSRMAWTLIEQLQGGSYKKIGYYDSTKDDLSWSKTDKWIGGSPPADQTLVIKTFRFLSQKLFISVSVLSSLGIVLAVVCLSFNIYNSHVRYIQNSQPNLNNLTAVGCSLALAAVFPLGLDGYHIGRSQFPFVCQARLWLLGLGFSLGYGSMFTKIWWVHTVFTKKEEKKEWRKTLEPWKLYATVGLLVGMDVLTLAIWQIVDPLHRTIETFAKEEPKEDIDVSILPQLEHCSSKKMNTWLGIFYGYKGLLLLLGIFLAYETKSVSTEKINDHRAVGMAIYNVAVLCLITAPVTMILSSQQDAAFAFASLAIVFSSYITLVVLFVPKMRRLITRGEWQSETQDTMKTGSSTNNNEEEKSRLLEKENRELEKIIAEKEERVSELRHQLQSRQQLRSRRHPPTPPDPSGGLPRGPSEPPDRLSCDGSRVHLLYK
T5 sequence (O88871 41-940 partner): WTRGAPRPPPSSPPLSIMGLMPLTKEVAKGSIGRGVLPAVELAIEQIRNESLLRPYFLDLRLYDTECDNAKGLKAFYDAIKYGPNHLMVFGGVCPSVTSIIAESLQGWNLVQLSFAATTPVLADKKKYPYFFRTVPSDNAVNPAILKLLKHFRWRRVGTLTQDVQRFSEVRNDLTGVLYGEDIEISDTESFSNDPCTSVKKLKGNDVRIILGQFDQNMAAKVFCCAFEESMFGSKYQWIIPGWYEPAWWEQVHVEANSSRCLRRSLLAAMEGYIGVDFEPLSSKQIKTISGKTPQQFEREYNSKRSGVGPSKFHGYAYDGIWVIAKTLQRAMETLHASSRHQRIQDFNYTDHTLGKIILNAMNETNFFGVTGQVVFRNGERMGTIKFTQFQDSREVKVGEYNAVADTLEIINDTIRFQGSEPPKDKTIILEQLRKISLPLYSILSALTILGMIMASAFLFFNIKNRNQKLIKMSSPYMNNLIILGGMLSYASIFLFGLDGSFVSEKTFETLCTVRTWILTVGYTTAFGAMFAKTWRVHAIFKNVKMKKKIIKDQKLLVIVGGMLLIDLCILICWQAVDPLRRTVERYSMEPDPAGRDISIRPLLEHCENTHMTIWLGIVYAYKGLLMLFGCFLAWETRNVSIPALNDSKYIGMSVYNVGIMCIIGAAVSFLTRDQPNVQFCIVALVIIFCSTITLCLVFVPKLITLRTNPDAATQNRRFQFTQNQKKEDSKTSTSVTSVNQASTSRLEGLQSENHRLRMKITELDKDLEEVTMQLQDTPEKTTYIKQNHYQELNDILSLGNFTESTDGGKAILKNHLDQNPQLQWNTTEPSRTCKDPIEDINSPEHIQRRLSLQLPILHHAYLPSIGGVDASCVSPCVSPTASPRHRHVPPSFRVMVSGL
T2 sequence (P31390 whole entry): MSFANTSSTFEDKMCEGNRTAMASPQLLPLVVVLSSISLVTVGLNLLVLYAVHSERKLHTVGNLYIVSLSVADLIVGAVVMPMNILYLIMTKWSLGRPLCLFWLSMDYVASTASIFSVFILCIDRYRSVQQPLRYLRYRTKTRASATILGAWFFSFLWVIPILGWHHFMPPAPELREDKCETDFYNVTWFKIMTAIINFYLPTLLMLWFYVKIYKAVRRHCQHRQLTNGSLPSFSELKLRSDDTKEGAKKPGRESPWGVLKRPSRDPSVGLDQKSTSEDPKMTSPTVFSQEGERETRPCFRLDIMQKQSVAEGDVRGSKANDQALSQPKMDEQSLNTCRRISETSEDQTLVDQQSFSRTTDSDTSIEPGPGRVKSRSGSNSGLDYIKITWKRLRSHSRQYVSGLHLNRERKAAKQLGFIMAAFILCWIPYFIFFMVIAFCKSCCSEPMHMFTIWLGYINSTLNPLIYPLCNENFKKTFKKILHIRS
T8 sequence (P31389 whole entry): as the sequence (P31389 whole entry) above

For `CC(C)(C)c1ccc(C(O)CCCN2CCN(c3nc4ccccc4n3Cc3ccc(F)cc3)CC2)cc1` (centres unmarked) [example III], the pIC50 (Adenosine A2; [10]) was < 5.00, the pIC50 [1] was < 5.00 and the “behavioural alteration (Irwin's test)” value ([2]; maximal tested dosage 400 mg/kg, at 3 hours only) was “a very weak passivity in half of the animals”. For the same compound, the pIC50 [3] was 5.96, the pIC50 (Muscarinic M1) was < 5.00 and the pIC50 (Sigma receptor; rat whole brain, 2 nM [3H](+)3-PPP, pH 8, read-out: CI50 (the source's name)) was < 5.00. The pIC50 (GABAB; [11]) was < 5.00, the “alteration of rota-rod performance” value ([4]; oral, until highest tested dosage 100 mg/kg, 30 and 60 mn, versus vehicle) was “did not alter the performances” and the pIC50 (GABAA) was < 5.00. The “duration of protection against histamine bronchospasm” value [5] was 12 h, the “animals with total protection (more than 5 minutes) at 24 hours” value ([5]; 24 hours) was 50% and the “clinical symptoms, search for maximal non-toxic dosage” value [6] was “do not display any clinical symptom”. For the same compound, the pIC50 (Muscarinic M2; pH 7.5, read-out: CI50 (the source's name)) was < 5.00, the pIC50 (Adenosine A1; [12]) was < 5.00 and the pIC50 [7] was 5.57. The “effect on histamine contraction of isolated ileon” value (from here on “effect on histamine contraction”) (receptors of H1-type; 10^-5 M) was “partially irreversible inhibition”, the “activity compared with Terfenadine on isolated ileon” value (receptors of H1-type; 10^-5 M) was “the opposite seems to be produced” and the “effect on histamine contraction” value (receptors of H1-type; 10^-6 M) was “inhibition of the competitive type”. The “activity compared with Terfenadine on isolated ileon” value (receptors of H1-type; 10^-6 M) was “slightly more active than Terfenadine”, the “effect on histamine contraction” value (receptors of H1-type; 10^-7 M) was “no effect” and the ED50 ([8]; intraperitoneal, from regression curve) was ~6.7 mg/kg. The “protection against histamine bronchospasm” value ([8]; intraperitoneal) was “poorly efficient”, the “protection against histamine bronchospasm” value [8, 13] was “total protection of all the animals” and the pIC50 [9, 14] was < 5.00.
With `COc1ccc(CN(CCN(C)C)c2ccccn2)cc1` [Mepyramine] the pIC50 (Adenosine A2; [10]) was < 5.00, the pIC50 [1] was < 5.00 and the pIC50 (Sigma receptor) was 6.23. For the same compound, the “affinity for Sigma-receptor, times weaker than pentazocine” value (Sigma receptor; versus pentazocine) was ~20 times weaker, the pIC50 (GABAB; [11]) was < 5.00 and the pIC50 (GABAA) was < 5.00. For the same compound, the pIC50 (Muscarinic M2) was 5.46, the pIC50 (Adenosine A1; [12]) was < 5.00 and the pIC50 [9, 14] was < 5.00.
In the case of `CC(C)(C)c1ccc(C(O)CCCN2CCC(C(O)(c3ccccc3)c3ccccc3)CC2)cc1` (centres unmarked) [Terfenadine], the pIC50 (Adenosine A2) was < 5.00, the pIC50 [1] was < 5.00 and the pIC50 (Sigma receptor) was < 5.00. For the same compound, the pIC50 (GABAB) was < 5.00, the pIC50 (GABAA) was < 5.00 and the “duration of protection against histamine bronchospasm” value [5] was 4 h. The pIC50 (Muscarinic M2) was < 5.00, the pIC50 (Adenosine A1) was < 5.00 and the ED50 [8] was ~7 mg/kg. The “protection against histamine bronchospasm” value ([8]; intraperitoneal) was “poorly efficient”, the “protection against histamine bronchospasm” value [8, 13] was “total protection of all the animals” and the pIC50 [9] was < 5.00.
For `CN(C)CC[C@@H](c1ccc(Cl)cc1)c1ccccn1` [Dexchlorpheniramine], the “behavioural alteration (Irwin's test)” value ([2]; 100 mg/kg, 30 mn) was “a hyperactivity and a slight irritability”, the “behavioural alteration (hyperactivity and slight irritability)” value ([2]; 100 mg/kg, 3 hours) was “persisting” and the “behavioural alteration (hyperactivity and slight irritability)” value ([2]; 100 mg/kg, 24 hours) was “disappearing”. The “ocular effect (Irwin's test)” value ([2]; 100 mg/kg, after 3 hours) was “mydriasis”.
For `CN(C)CCCN1c2ccccc2Sc2ccc(Cl)cc21` [Chlorpromazine], the “mice falling before the time granted (120 seconds)” value ([4]; intraperitoneal, from 4 mg/kg) was 90%.
